Test results as given in patent US10772840B2 (Charleston Laboratories, Inc., priority 2016, dated 2020).
Structures can show the parent of a compound that is named as a salt.

Assay: Dissolution measurement by USP Apparatus 2 (Paddle Apparatus), HPLC analysis
Type: physicochemical
Conditions: for Dissolution, API released: 500 ml 0.1 N HCl pH 1.1, 37.0° C.; for Dissolution (% release), Max. / Dissolution (% release), Mean / Dissolution (% release), Min.: 500 ml 0.1 N HCl pH 1.1, N=6
Procedure: Dissolution studies were conducted to measure the rates of dissolution of active ingredients using a USP Apparatus 2 (Paddle Apparatus) with a dissolution fluid of 500 ml deaerated 0.1 N HCl (i.e., pH 1.1) at 37.0+/−0.5° C. Dissolution samples were analyzed by HPLC.
Dissolution medium of 0.1N HCl was prepared by mixing approximately 85 ml of concentrated (12N) Hydrochloric Acid with 10 L of water. Stock promethazine HCl standard solution was prepared by adding approximately 30 ml of dissolution medium to 25.0 mg of dried Promethazine Hydrochloride USP reference standard in a 50 ml volumetric flash, diluted to volume with dissolution media, and mixed well. […] The resulting solution is diluted to volume with dissolution medium and mixed well.
The dissolution apparatus used is USP Apparatus 2 (Paddle Apparatus) with a speed of 50 rpm at 37.0° C.±0.5° C. Dissolution medium (500 ml) was Helium sparged for at least 10 minutes. N=6 samples were tested. Sample time point of 5, 10, 15, 20, 30, 45, 60, and 90 minutes (final time point at 250 rpm). Filters: QLA 10 μm in-line full flow porous filter or equivalent; chromafil 1.0 μm on-line glass fiber membrane filter or equivalent.
The dissolution apparatus was assembled and the paddle was positioned so that the distance between its lower edge and the lower inner surface of the vessel is within 25 mm±2 mm throughout the test. This step was repeated for each of the six vessels. The speed (50 rpm) and the temperature (37.0° C.±0.5° C.) were set. 500 mL of 0.1N HCl solution were placed into each of the six vessels, previously degassed via helium purge, degassed using degasser or other suitable means. The Dissolution medium was equilibrated to set temperature and the temperature of the dissolution medium was checked with a thermometer or thermocouple before starting the dissolution. Each of the six (6) capsules were accurately weighed and the weight was recorded. The dissolution test was started. Each capsule was dropped with sinker into vessels noting the station assigned to each recorded capsule weight. The shaft was rotated at 50 rpm. Samples were withdrawn by dissolution auttosampler at 5, 10, 15, 20, 30, 45, 60, and 90 minutes into HPLC vials, or were withdraw manually. Filters (QLA 10 μm in-line full flow porous filter or equivalent; chromafil 1.0 μm on-line glass fiber membrane filter or equivalent) were utilized, discarding at least the first 5 mL of the filtrate, and clear filtrate was transfered into HPLC vials. After withdrawing samples at the 60 minute time point, the paddle rotation speed was increased to 250 rpm until the next time point of 90 minutes.
HPLC conditions: Flow rate: 1.0 ml/min; Injection Volume: 10 μL; Column Temperature: 40° C.±2° C.; Wavelengths: 240 nm; Run Time: 7 minutes; Mobile Phase A was 0.2% TFA in Water, which was prepared by mixing well 2.0 ml of trifluoroacetic acid with 1 L of water. Mobile Phase B: 0.2% TFA in Acetonitrile, which was prepared by mixing well 2.0 ml of trifluoroacetic acid to 1 L of acetonitrile; and Gradient used was as follows in Table 8.
If a Water® dissolution autosampler was utilized, then the Empower Dissolution Software was used to calculate the profile. Calculation are performed using a validated excel spreadsheet. When the sample was performed manually, the volume correction was considered for the calculation.

[1] = in a capsule, after 1 month store at 40° C., 5 min, 50 rpm
[2] = in a capsule, after 1 month store at 40° C., 10 min, 50 rpm
[3] = in a capsule, after 1 month store at 40° C., 15 min, 50 rpm
[4] = in a capsule, after 1 month store at 40° C., 20 min, 50 rpm
[5] = in a capsule, after 1 month store at 40° C., 30 min, 50 rpm
[6] = in a capsule, after 1 month store at 40° C., 45 min, 50 rpm
[7] = in a capsule, after 1 month store at 40° C., 60 min, 50 rpm
[8] = in a capsule, after 1 month store at 40° C., 90 min (250 rpm after 60 min)
[9] = in a capsule, large batch, 5 min, 50 rpm
[10] = in a capsule, large batch, 10 min, 50 rpm
[11] = in a capsule, large batch, 15 min, 50 rpm
[12] = in a capsule, large batch, 20 min, 50 rpm
[13] = in a capsule, large batch, 30 min, 50 rpm
[14] = in a capsule, large batch, 45 min, 50 rpm
[15] = in a capsule, large batch, 60 min, 50 rpm
[16] = in a capsule, large batch, 90 min (250 rpm after 60 min)

Q: Which “Dissolution, API released” value (content of capsule without shells, 5 min, 50 rpm) does the source give for CC(CN1c2ccccc2Sc2ccccc21)N(C)C (centres unmarked) [Promethazine, Promethazine Hydrochloride] here?
A: 85%

Q: And the “Dissolution, API released” value (content of capsule without shells, 10 min, 50 rpm)?
A: 90%

Q: What about the “Dissolution, API released” value (content of capsule without shells, 15 min, 50 rpm) of the same compound?
A: 92%

Q: And the “Dissolution, API released” value (content of capsule without shells, 20 min, 50 rpm)?
A: 94%

Q: What about the “Dissolution, API released” value (content of capsule without shells, 30 min, 50 rpm) of the same compound?
A: 94%

Q: And the “Dissolution, API released” value (content of capsule without shells, 45 min, 50 rpm)?
A: 95%

Q: And the “Dissolution, API released” value (content of capsule without shells, 60 min, 50 rpm)?
A: 96%

Q: And the “Dissolution, API released” value (content of capsule without shells, 90 min (250 rpm after 60 min))?
A: 100%

Q: What about the “Dissolution (% release), Max.” value [1] of the same compound?
A: 56

Q: And the “Dissolution (% release), Mean” value [1]?
A: 43

Q: What about the “Dissolution (% release), Min.” value [1] of the same compound?
A: 35

Q: And the “Dissolution (% release), Max.” value [2]?
A: 77

Q: What about the “Dissolution (% release), Mean” value [2] of the same compound?
A: 64

Q: And the “Dissolution (% release), Min.” value [2]?
A: 54

Q: And the “Dissolution (% release), Max.” value [3]?
A: 83

Q: What about the “Dissolution (% release), Mean” value [3] of the same compound?
A: 73

Q: And the “Dissolution (% release), Min.” value [3]?
A: 63

Q: And the “Dissolution (% release), Max.” value [4]?
A: 88

Q: And the “Dissolution (% release), Mean” value [4]?
A: 79

Q: And the “Dissolution (% release), Min.” value [4]?
A: 68

Q: And the “Dissolution (% release), Max.” value [5]?
A: 92

Q: What about the “Dissolution (% release), Mean” value [5] of the same compound?
A: 84

Q: And the “Dissolution (% release), Min.” value [5]?
A: 74

Q: And the “Dissolution (% release), Max.” value [6]?
A: 96

Q: And the “Dissolution (% release), Mean” value [6]?
A: 89

Q: And the “Dissolution (% release), Min.” value [6]?
A: 80

Q: What about the “Dissolution (% release), Max.” value [7] of the same compound?
A: 98

Q: And the “Dissolution (% release), Mean” value [7]?
A: 92

Q: What about the “Dissolution (% release), Min.” value [7] of the same compound?
A: 84

Q: And the “Dissolution (% release), Max.” value [8]?
A: 103

Q: What about the “Dissolution (% release), Mean” value [8] of the same compound?
A: 102

Q: And the “Dissolution (% release), Min.” value [8]?
A: 99

Q: And the “Dissolution (% release), Max.” value [9]?
A: 63

Q: What about the “Dissolution (% release), Mean” value [9] of the same compound?
A: 47

Q: And the “Dissolution (% release), Min.” value [9]?
A: 32

Q: And the “Dissolution (% release), Max.” value [10]?
A: 87

Q: And the “Dissolution (% release), Mean” value [10]?
A: 69

Q: And the “Dissolution (% release), Min.” value [10]?
A: 53

Q: What about the “Dissolution (% release), Max.” value [11] of the same compound?
A: 92

Q: What about the “Dissolution (% release), Mean” value [11] of the same compound?
A: 78

Q: What about the “Dissolution (% release), Min.” value [11] of the same compound?
A: 63

Q: And the “Dissolution (% release), Max.” value [12]?
A: 95

Q: What about the “Dissolution (% release), Mean” value [12] of the same compound?
A: 82

Q: And the “Dissolution (% release), Min.” value [12]?
A: 71

Q: And the “Dissolution (% release), Max.” value [13]?
A: 97

Q: And the “Dissolution (% release), Mean” value [13]?
A: 87

Q: What about the “Dissolution (% release), Min.” value [13] of the same compound?
A: 79

Q: What about the “Dissolution (% release), Max.” value [14] of the same compound?
A: 99

Q: And the “Dissolution (% release), Mean” value [14]?
A: 92

Q: What about the “Dissolution (% release), Min.” value [14] of the same compound?
A: 85

Q: And the “Dissolution (% release), Max.” value [15]?
A: 101

Q: What about the “Dissolution (% release), Mean” value [15] of the same compound?
A: 94

Q: And the “Dissolution (% release), Min.” value [15]?
A: 88

Q: And the “Dissolution (% release), Max.” value [16]?
A: 105

Q: What about the “Dissolution (% release), Mean” value [16] of the same compound?
A: 102

Q: What about the “Dissolution (% release), Min.” value [16] of the same compound?
A: 101

Q: What about the “Dissolution, API released” value (in a capsule, small batch, 5 min, 50 rpm) of the same compound?
A: 55%

Q: And the “Dissolution, API released” value (in a capsule, small batch, 10 min, 50 rpm)?
A: 78%

Q: And the “Dissolution, API released” value (in a capsule, small batch, 15 min, 50 rpm)?
A: 85%

Q: What about the “Dissolution, API released” value (in a capsule, small batch, 20 min, 50 rpm) of the same compound?
A: 88%

Q: And the “Dissolution, API released” value (in a capsule, small batch, 30 min, 50 rpm)?
A: 92%

Q: What about the “Dissolution, API released” value (in a capsule, small batch, 45 min, 50 rpm) of the same compound?
A: 95%

Q: And the “Dissolution, API released” value (in a capsule, small batch, 60 min, 50 rpm)?
A: 97%

Q: What about the “Dissolution, API released” value (in a capsule, small batch, 90 min (250 rpm after 60 min)) of the same compound?
A: 102%

Q: And the “Dissolution, API released” value (promethazine and sumatriptan pellets, 5 min, 50 rpm)?
A: 95%

Q: And the “Dissolution, API released” value (promethazine and sumatriptan pellets, 15 min, 50 rpm)?
A: 102%

Q: What about the “Dissolution, API released” value (promethazine and sumatriptan pellets, 20 min, 50 rpm) of the same compound?
A: 102%

Q: And the “Dissolution, API released” value (promethazine and sumatriptan pellets, 30 min, 50 rpm)?
A: 102%

Q: What about the “Dissolution, API released” value (promethazine and sumatriptan pellets, 45 min, 50 rpm) of the same compound?
A: 102%

Q: And the “Dissolution, API released” value (promethazine and sumatriptan pellets, 60 min, 50 rpm)?
A: 102%

Q: And the “Dissolution, API released” value (promethazine and sumatriptan pellets, 90 min (250 rpm after 60 min))?
A: 102%
